Assay results: publication PMC8708492, “Homing Peptide-Based Targeting of Tenascin-C and Fibronectin in Endometriosis” (Nanomaterials, 2021)

What was measured:
[1] = tested on: 12Z cells; test: Binding of peptide-displaying T7 phages to cultured cells (plaque assay); parameters: species or system human; details: peptide displayed on T7 phage, 12Z cells in suspension, 4 °C, 1 h, washed, N = 3
Procedure: (§1) Peptide-displaying T7 bacteriophages were prepared by cloning nucleotide sequences coding for different peptides into phage genomic DNA to be expressed on the phage surface as C-terminal fusions to capsid protein. The complementary oligonucleotides were annealed, and the cloning was performed according to the manufacturer’s protocol using the T7Select® 415-1 Cloning Kit (Millipore, 70015-3, Merck KGaA, Darmstadt, Germany). Peptide-displaying phage clones were thereafter amplified in complementing host bacterial cells BLT5403 and purified with polyethylene glycol according to an established protocol.
(§2) Prior to phage addition, 12Z and HESC cells were detached, washed with PBS, and resuspended in 0.5% BSA containing DMEM. Phages expressing a single peptide of interest (5 × 10^7 PFU/mL) were added to 5 × 10^7 cells, wherein insertless phage was used as a negative control. Incubation with phage clones was carried out on a slowly rocking platform at 4 °C for 1 h. Cells were washed four times with 0.5% BSA containing DMEM to eliminate unbound phages. Finally, the cells together with bound phages were resuspended in 1% NP40 containing LB solution, and plaque assay was performed as described earlier. Briefly, the amount of phage in cell lysates was determined by titering using Escherichia coli strain BLT5615 in LB medium containing 2 mM IPTG.
(§3) Figure 1 Binding of peptide-phages to cultured 12Z and HESC cells. Cells were incubated with the different peptide-displaying phages at 4 °C for 1 h, washed, and phage binding quantified by plaque assay. The phage binding is represented as a fold over insertless phage. N = 3, error bars = ±SEM. *** p < 0.001 (compared with insertless phage).

[2] = tested on: HESC cells; test: as above; parameters: species or system human; details: peptide displayed on T7 phage, HESC cells in suspension, 4 °C, 1 h, washed, N = 3
Procedure: as §1, §2, §3

| Substance | phage binding, fold over insertless phage [1] | phage binding, fold over insertless phage [2] |
| --- | --- | --- |
| VRRADNRPG [EM1, receptor CNGB3] | low/background binding |  |
| AGRGRLVR (displayed on T7 phage) [PL3] | 4–6 fold | 4–6 fold |
| RPARPAR | low/background binding | ~ 2 fold |
| PPRRGLIKLKTS [PL1] | 13–16 fold | 13–16 fold |
| C * RGDKGPDC * (disulfide) [iRGD, disulfide-cyclised peptide targeting angiogenic αv integrins and NRP-1] | 3 fold | 9 fold |
| RTRLHTR [EM2, receptor unknown] | low/background binding | ~ 2 fold |
